Assays:
CDK1/CycE1 = CDK1/CycE1 (Homo sapiens, UniProt P06493); test: ADP-Glo kinase assay on CDK enzymatic activity, CDK1/CycE1; type: biochemical; conditions: ADP-Glo; 10 concentrations from 10 μM, 4-fold; 60 min room temperature; read-out: CDK1/CycE1/nM (IC50)
How it was run: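 Compounds in 10-point 4-fold dilutions from 10 μM final, preincubated 10 min with kinase, then substrate/ATP added; 60 min reaction at room temperature. ADP-Glo luminescence read.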

CDK2/CycA2 = CDK2/CycA2 (Homo sapiens, UniProt P24941); test: ADP-Glo kinase assay on CDK enzymatic activity, CDK2/CycA2; type: biochemical; conditions: 10 concentrations from 10 μM, 4-fold, 60 min room temperature
How it was run: (§1)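 Enzyme activity was measured by ADP-Glo luminescence following 60 min turnover of CDK tide peptide at room temperature. Compounds spanned ten 4-fold dilutions from 10 μM final, with 0.5% DMSO.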

[1] = tested on: MV-4-11 (human myelomonocytic leukemia cells); test: CCK-8 cell proliferation assay, MV-4-11; type: cell-based; conditions: MV4-11, 24 h incubation, 11 concentrations from 5000 nM, 3-fold, read-out: MV-4-11 cell proliferation IC50 (class)
Experimental: Test samples: the compounds of the present invention, having structures shown above.
MV-4-11 (human myelomonocytic leukemia cells) and NCI-H929 (human myeloma cells).
The compounds were dissolved in DMSO and diluted 3-fold in the 96-well plate to obtain stock solutions with 11 concentration gradients. Each cell was inoculated into a 96-well plate, and the diluted compound stock solution was added to the 96-well plate to obtain a series of 11 concentration gradients of compound solutions with final concentrations of 5000 nM starting and 3-fold gradient decreasing, wherein the final DMSO content was […]. There was a medium containing 1‰ DMSO in the negative control well. The treated cells were incubated at 37° C. with 5% CO2 and 95% humidity, wherein MV-4-11 were incubated for 24 h and NCI-H929 for 72 h. After incubation was completed, each well was added with 10 μL of CCK-8 reagent, incubated for 1-3 h at room temperature and placed in the microplate reader, and the absorbance was read at 450 nm.
The inhibition rate was calculated according to the following formula: […]
ODcmpd: compound absorbance; ODpositive: average value of the absorbance of positive control without compound; ODvehicle: average value of the absorbance of solvent vehicle control.
IC50 values were fitted using GraphPad 7.0 based on inhibition rates of compounds at different concentrations.

CDK9/CycT1 = CDK9/CycT1 (Homo sapiens, UniProt P50750); test: ADP-Glo kinase assay on CDK enzymatic activity, CDK9/CycT1; type: biochemical; conditions: 10 concentrations from 10 μM, 4-fold, 60 min room temperature
CDK9/CycT1, sequence (P50750 whole entry): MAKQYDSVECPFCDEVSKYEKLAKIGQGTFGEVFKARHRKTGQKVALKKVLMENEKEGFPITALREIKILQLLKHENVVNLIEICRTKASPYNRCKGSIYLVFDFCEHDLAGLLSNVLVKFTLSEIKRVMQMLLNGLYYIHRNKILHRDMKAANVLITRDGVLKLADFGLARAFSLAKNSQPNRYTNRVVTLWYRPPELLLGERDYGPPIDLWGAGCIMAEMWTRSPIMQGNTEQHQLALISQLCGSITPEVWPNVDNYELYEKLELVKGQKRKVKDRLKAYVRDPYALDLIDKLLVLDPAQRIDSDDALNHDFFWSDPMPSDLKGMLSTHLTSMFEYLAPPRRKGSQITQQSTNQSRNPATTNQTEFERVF
CDK9/CycT1, sequence (O60563 whole entry partner): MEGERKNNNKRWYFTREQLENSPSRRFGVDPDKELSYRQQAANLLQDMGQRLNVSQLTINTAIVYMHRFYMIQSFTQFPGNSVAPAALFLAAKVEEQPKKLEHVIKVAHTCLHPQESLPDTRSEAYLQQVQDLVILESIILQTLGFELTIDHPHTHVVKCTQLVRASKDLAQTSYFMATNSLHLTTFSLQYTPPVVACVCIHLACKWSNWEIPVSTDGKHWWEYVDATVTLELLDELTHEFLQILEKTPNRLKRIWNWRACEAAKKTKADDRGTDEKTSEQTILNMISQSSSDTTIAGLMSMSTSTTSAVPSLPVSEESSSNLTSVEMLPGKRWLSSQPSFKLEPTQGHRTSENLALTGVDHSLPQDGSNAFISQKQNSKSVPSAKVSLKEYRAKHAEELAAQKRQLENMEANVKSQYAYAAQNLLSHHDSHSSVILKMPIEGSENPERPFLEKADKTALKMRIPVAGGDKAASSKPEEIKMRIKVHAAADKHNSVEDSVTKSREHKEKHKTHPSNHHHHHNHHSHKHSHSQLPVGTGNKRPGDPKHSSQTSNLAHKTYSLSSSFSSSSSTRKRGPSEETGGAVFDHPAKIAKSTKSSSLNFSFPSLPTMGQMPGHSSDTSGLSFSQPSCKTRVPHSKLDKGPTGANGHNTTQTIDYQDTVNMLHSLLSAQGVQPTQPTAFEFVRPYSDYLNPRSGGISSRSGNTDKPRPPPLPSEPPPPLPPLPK
How it was run: as §1

CDK3/CycE1 = CDK3/CycE1 (Homo sapiens, UniProt Q00526); test: ADP-Glo kinase assay on CDK enzymatic activity, CDK3/CycE1; type: biochemical; conditions: 10 concentrations from 10 μM, 4-fold, 60 min room temperature
CDK3/CycE1, sequence (Q00526 whole entry, species assumed): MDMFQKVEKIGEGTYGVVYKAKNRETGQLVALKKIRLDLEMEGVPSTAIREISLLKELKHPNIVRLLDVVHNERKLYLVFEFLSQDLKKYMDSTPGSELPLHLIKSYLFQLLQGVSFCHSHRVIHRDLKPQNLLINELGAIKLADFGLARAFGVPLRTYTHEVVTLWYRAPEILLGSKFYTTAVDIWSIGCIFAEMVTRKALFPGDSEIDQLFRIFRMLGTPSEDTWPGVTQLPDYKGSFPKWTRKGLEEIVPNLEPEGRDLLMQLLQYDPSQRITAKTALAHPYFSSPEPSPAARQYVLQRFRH
CDK3/CycE1, sequence (P24864 whole entry partner, species assumed): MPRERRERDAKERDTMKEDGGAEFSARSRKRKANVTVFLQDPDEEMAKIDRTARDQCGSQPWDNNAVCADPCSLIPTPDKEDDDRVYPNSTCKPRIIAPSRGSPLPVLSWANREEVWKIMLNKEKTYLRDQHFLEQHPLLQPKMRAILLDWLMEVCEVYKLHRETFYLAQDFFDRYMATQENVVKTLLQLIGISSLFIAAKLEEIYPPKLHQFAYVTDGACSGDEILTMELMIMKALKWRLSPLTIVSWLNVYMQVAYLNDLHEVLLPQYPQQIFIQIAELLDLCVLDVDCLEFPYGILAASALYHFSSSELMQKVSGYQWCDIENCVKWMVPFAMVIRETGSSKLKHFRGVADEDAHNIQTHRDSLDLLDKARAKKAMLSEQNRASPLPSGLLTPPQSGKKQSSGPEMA
How it was run: as §1

CDK1/CycE1, sequence (P06493 whole entry, species assumed): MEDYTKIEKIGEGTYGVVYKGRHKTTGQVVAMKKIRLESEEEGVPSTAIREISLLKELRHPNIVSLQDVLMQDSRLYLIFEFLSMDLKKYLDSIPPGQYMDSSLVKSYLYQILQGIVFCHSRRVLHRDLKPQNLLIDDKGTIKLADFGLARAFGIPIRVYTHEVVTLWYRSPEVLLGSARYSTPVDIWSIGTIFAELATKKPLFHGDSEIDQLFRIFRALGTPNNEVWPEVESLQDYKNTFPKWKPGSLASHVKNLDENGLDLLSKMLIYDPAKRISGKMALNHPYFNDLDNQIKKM
CDK1/CycE1, sequence (P24864 whole entry partner, species assumed): as the sequence (P24864 whole entry partner, species assumed) above

Row | IC50 (CDK1/CycE1) [nM] | IC50 (CDK2/CycA2) [nM] | IC50 [1] [nM] | IC50 (CDK9/CycT1) [nM] | IC50 (CDK3/CycE1) [nM] | SMILES
1 | 14 | 540 | 400 to 1000 | 2 |  | CC(C)Oc1nc(C#N)cc2cnc(N[C@H]3C[C@@H](N)C3)cc12 [Compound 195, 7-(((1s,3s)-3-aminocyclobutyl)amino)-1-isopropoxy-2,6-naphthyridine-3-carbonitrile]
2 | 51 | 35 | 400 to 1000 | 3 |  | CC(C)Nc1nc(C#N)cc2cnc(N[C@H]3C[C@@H](CO)C3)nc12 [Compound C29, 2-(((1s,3s)-3-(hydroxymethyl)cyclobutyl)amino)-8-(isopropylamino)pyrido[3,4-d]pyrimidine-6-carbonitrile]
3 | 398 | 679 | 400 to 1000 | 5 |  | N#Cc1cc2cnc(N[C@H]3CCCNC3)cc2c(C2CCCCC2)n1 [Compound 193, (S)-1-cyclohexyl-7-(piperidin-3-ylamino)-2,6-naphthyridine-3-carbonitrile]
4 |  |  | > 1000 | 46 |  | C=Cc1cc2cnc(NC(=O)[C@H]3CCC[C@@H](NC(C)=O)C3)nc2c(NC(C)C)n1 [Compound 10, (1S,3R)-3-acetamido-N-(8-(isopropylamino)-6-vinylpyrido[3,4-d]pyrimidin-2-yl)cyclohexane-1-carboxamide]
5 |  |  | > 1000 | 19 |  | CC(C)(C)Nc1nc(C#N)cc2cnc(NC(=O)[C@H]3CCCNC3)cc12 [Compound 177, (S)—N-(5-(tert-butylamino)-7-cyano-2,6-naphthyridin-3-yl)piperidine-3-carboxamide]
6 |  |  | > 1000 | 7 |  | CC(C)Nc1nc(C#N)cc2cnc(NC3CNC3)nc12 [Compound 129, 2-(azetidin-3-ylamino)-8-(isopropylamino)pyrido[3,4-d]pyrimidine-6-carbonitrile]
7 |  |  | 400 to 1000 | 12 |  | CC(C)Nc1nc(C#N)cc2cnc(N[C@@H]3CCCNCC3)nc12 [Compound 132, (R)-2-(azepan-4-ylamino)-8-(isopropylamino)pyrido[3,4-d]pyrimidine-6-carbonitrile]
8 | 26 |  | 400 to 1000 | 4 | 29 | CC(C)Nc1nc(C#N)cc2cnc(N[C@H]3CCC(=O)NC3)nc12 [Compound 106, (S)-8-(isopropylamino)-2-((6-oxopiperidin-3-yl)amino)pyrido[3,4-d]pyrimidine-6-carbonitrile]
9 |  |  | > 1000 | 44 |  | CC(=O)N[C@@H]1CCC[C@H](C(=O)Nc2ncc3cc(C(F)F)nc(NC(C)C)c3n2)C1 [Compound 7, (1S,3R)-3-acetamido-N-(6-(difluoromethyl)-8-(isopropylamino)pyrido[3,4-d]pyrimidin-2-yl)cyclohexane-1-carboxamide]
10 |  |  | 400 to 1000 | 12 |  | C[C@]1(N)C[C@H](Nc2cc3c(NC4CC4)nc(C#N)cc3cn2)C1 [Compound 210, 7-((trans)-3-amino-3-methylcyclobutyl)amino-1-(cyclopropylamine)-2,6-naphthyridine-3-carbonitrile]
11 |  |  | 400 to 1000 | 3 |  | CC(C)Nc1nc(C#N)cc2cnc(N[C@H]3CCC[C@H]3N)cc12 [Compound 158, 7-(((1S,2R)-2-aminocyclopentyl)amino)-1-(isopropylamino)-2,6-naphthyridine-3-carbonitrile]
12 |  |  | > 1000 | 19 |  | CC(C)Nc1nc(C#N)cc2cnc(N[C@]3(C)C[C@@H](N)C3)nc12 [Compound C27, 2-(((1r,3r)-3-amino-1-methylcyclobutyl)amino)-8-(isopropylamino)pyrido[3,4-d]pyrimidine-6-carbonitrile]
13 |  |  | 400 to 1000 | 7 |  | CC(C)(C)Nc1nc(C#N)cc2cnc(NC(=O)[C@@H]3CCCNC3)cc12 [Compound 178, (R)—N-(5-(tert-butylamino)-7-cyano-2,6-naphthyridin-3-yl)piperidine-3-carboxamide]
14 |  |  | 400 to 1000 | 7 |  | CCNc1nc(C#N)cc2cnc(N[C@H]3C[C@](C)(N)C3)cc12 [Compound 208, 7-(((1r,3r)-3-amino-3-methylcyclobutyl)amino)-1-(ethylamino)-2,6-naphthyridine-3-carbonitrile]
15 |  |  | 400 to 1000 | 14 |  | CC(C)Nc1nc(C#N)cc2cnc(NC3CCCS(=O)(=O)C3)nc12 (stereo not shown) [Compound 121, 2-((1,1-dioxidotetrahydro-2H-thiopyran-3-yl)amino)-8-(isopropylamino)pyrido[3,4-d]pyrimidine-6-carbonitrile]
16 |  |  | > 1000 | 15 |  | N#Cc1cc2cnc(N[C@H]3CCCNC3)cc2c(C2CC2)n1 [Compound 194, (S)-1-cyclopropyl-7-(piperidin-3-ylamino)-2,6-naphthyridine-3-carbonitrile]
17 |  |  | > 1000 | 14 |  | N#Cc1cc2cnc(N[C@H]3CCCNC3)cc2c(OC2CC2)n1 [Compound 197, (S)-1-cyclopropoxy-7-(piperidin-3-ylamino)-2,6-naphthyridine-3-carbonitrile]
18 |  |  | > 1000 | 12 |  | CC(C)Nc1nc(C#N)cc2cnc(N[C@H]3CCOC3)nc12 [Compound 118, (S)-8-(isopropylamino)-2-((tetrahydrofuran-3-yl)amino)pyrido[3,4-d]pyrimidine-6-carbonitrile]
19 |  |  | > 1000 | 9 |  | CC(C)Nc1nc(C#N)cc2cnc(N[C@H]3CC[C@@H](O)CC3)nc12 [Compound 125, 2-(((1s,4s)-4-hydroxycyclohexyl)amino)-8-(isopropylamino)pyrido[3,4-d]pyrimidine-6-carbonitrile]
20 |  |  | 400 to 1000 | 9 |  | CC(C)(C)Nc1nc(C(F)F)cc2cnc(N[C@H]3[C@@H]4CNC[C@@H]43)nc12 [Compound C4, N^2-((1R,5S,6s)-3-azabicyclo[3.1.0]hexan-6-yl)-N^8-(tert-butyl)-6-(difluoromethyl)pyrido[3,4-d]pyrimidine-2,8-diamine]
21 |  |  | 400 to 1000 | 50 |  | CC(C)Nc1nc(C#N)cc2cnc(N[C@@H]3CCCCNC3)nc12 [Compound C5, (R)-2-(azepan-3-ylamino)-8-(isopropylamino)pyrido[3,4-d]pyrimidine-6-carbonitrile]
22 |  |  | > 1000 | 8 |  | CC(C)Nc1nc(C#N)cc2cnc(N[C@]3(C)C[C@@H](O)C3)nc12 [Compound C10, 2-(((1r,3r)-3-hydroxy-1-methylcyclobutyl)amino)-8-(isopropylamino)pyrido[3,4-d]pyrimidine-6-carbonitrile]
23 |  |  | 400 to 1000 | 10 |  | CC(C)(C)Nc1nc(C(N)=O)cc2cnc(N[C@H]3C[C@H](N)C3)nc12 [Compound C19, 2-(((1r,3r)-3-aminocyclobutyl)amino)-8-(tert-butylamino)pyrido[3,4-d]pyrimidine-6-carboxamide]
24 |  |  | > 1000 | 19 |  | CC(=O)N1CCN([C@H]2C[C@@H](Nc3ncc4cc(C#N)nc(NC(C)C)c4n3)C2)CC1 [Compound C33, 2-(((1s,3s)-3-(4-acetylpiperazin-1-yl)cyclobutyl)amino)-8-(isopropylamino)pyrido[3,4-d]pyrimidine-6-carbonitrile]
25 |  |  | > 1000 | 6 |  | CC(C)Nc1nc(C#N)cc2cnc(N[C@@H]3CCOC3)nc12 [Compound 119, (R)-8-(isopropylamino)-2-((tetrahydrofuran-3-yl)amino)pyrido[3,4-d]pyrimidine-6-carbonitrile]
26 |  |  | > 1000 | 6 | 90 | CC(C)Nc1nc(C#N)cc2cnc(N[C@H]3CCC[C@@H](O)C3)cc12 [Compound 41, 7-(((1S,3R)-3-hydroxycyclohexyl)amino)-1-(isopropylamino)-2,6-naphthyridine-3-carbonitrile]
27 |  |  | > 1000 | 9 |  | CC(C)Nc1nc(C#N)cc2cnc(NC3CCCC3N)cc12 (stereo not shown) [Compound 146, 7-((2-aminocyclopentyl)amino)-1-(isopropylamino)-2,6-naphthyridine-3-carbonitrile]
28 |  |  | > 1000 | 6 |  | CC(C)Nc1nc(C#N)cc2cnc(N[C@@H]3CCCOC3)nc12 [Compound 117, (R)-8-(isopropylamino)-2-((tetrahydro-2H-pyran-3-yl)amino)pyrido[3,4-d]pyrimidine-6-carbonitrile]

Row | SMILES | IC50 (CDK1/CycE1) [nM] | IC50 (CDK2/CycA2) [nM] | IC50 [1] [nM] | IC50 (CDK9/CycT1) [nM] | IC50 (CDK3/CycE1) [nM]
29 | CC(C)Nc1nc(C#N)cc2cnc(N[C@@H]3C[C@H]4COC[C@@H](C3)N4)nc12 [Compound 139, 2-(((1R,5S,7r)-3-oxa-9-azabicyclo[3.3.1]nonan-7-yl)amino)-8-(isopropylamino)pyrido[3,4-d]pyrimidine-6-carbonitrile] |  |  | > 1000 | 6 | 

From patent US20250163043A1 (TRANSTHERA SCIENCES (NANJING), INC., priority 2021, published 2025)
